Some test systems named below: 786-0 renal; PC-3 prostate; EKVX NSCLC; ACHN renal; SK-MEL-5 melanoma; SK-OV-3 ovarian; RXF 393 renal; LOX IMVI melanoma; MOLT-4 leukemia; RPMI-8226 leukemia.
Holding throughout (experiment): NCI anticancer screen, dose series, 48 h

SMILES strings stand for the structures.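 Each compound was tested at five concentrations against cells in 96-well plates for 48 hours. GI50 = concentration required for 50% inhibition of growth. Definition used: TGI = concentration required for complete inhibition of growth.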

`COc1ccc2c(c1)c(-c1nc(-c3cn(C)c4ncccc34)cs1)cn2CCCCN1CCCCC1`: the GI50 with 786-0 renal was 1610 nM; in the experiment with PC-3 prostate it was 1610 nM; in the experiment on EKVX NSCLC it was 1.66 µM; in the experiment with ACHN renal, 1650 nM; in the experiment with SK-MEL-5 melanoma, 1.71 µM; with SK-OV-3 ovarian, 1.71 µM. For the same molecule, in the experiment on RXF 393 renal, the GI50 was 1330 nM. The TGI came out at 3.06 µM in the experiment on 786-0 renal; 3 µM in the experiment with PC-3 prostate; 3.18 µM with EKVX NSCLC; 3 µM in the experiment with ACHN renal; 3.08 µM in the experiment on SK-MEL-5 melanoma; 3.15 µM with SK-OV-3 ovarian. This molecule returned a TGI with RXF 393 renal of 2.82 µM.

As for `CC1SC(c2ccc(OCc3ccccc3)cc2)N(NC(=O)C(O)(c2ccccc2)c2ccccc2)C1=O` (centres undefined), the GI50 in the experiment with LOX IMVI melanoma is 3.87 µM; in the experiment with 786-0 renal, 1980 nM; with PC-3 prostate it was 2080 nM; in the experiment on EKVX NSCLC it was 5.49 µM; in the experiment with ACHN renal, 2740 nM; in the experiment on MOLT-4 leukemia, 2020 nM. The values for the GI50 with SK-MEL-5 melanoma, in the experiment on RPMI-8226 leukemia and in the experiment with SK-OV-3 ovarian were 8.26 µM, 2050 nM and 9.49 µM, respectively. Moreover, the TGI in the experiment with LOX IMVI melanoma was 14.6 µM; in the experiment with 786-0 renal it was 4.64 µM; with PC-3 prostate, 6.85 µM; in the experiment on EKVX NSCLC, 22.5 µM; in the experiment with ACHN renal, 9.38 µM; with MOLT-4 leukemia it was 5.58 µM. Also, the TGI in the experiment with SK-MEL-5 melanoma is 20.7 µM; with RPMI-8226 leukemia it was 6.13 µM; in the experiment on SK-OV-3 ovarian, 33.2 µM.

On to `CC(=O)O[C@@H]1[C@H]2O[C@H]2[C@H]2O[C@@]2(COC(=O)c2ccccc2)[C@H]1OC(C)=O`, for which the TGI with LOX IMVI melanoma, in the experiment on 786-0 renal, in the experiment with PC-3 prostate, in the experiment with EKVX NSCLC, with ACHN renal and with MOLT-4 leukemia was > 100 µM in each case. For the same molecule, the TGI with SK-MEL-5 melanoma, with RPMI-8226 leukemia and in the experiment with SK-OV-3 ovarian was > 100 µM each time.

`CCOc1ccc(-c2nc3ccc(-c4nc5ccc(N6CCN(C)CC6)cc5[nH]4)cc3[nH]2)cc1OCC`: the GI50 with 786-0 renal was 2080 nM; in the experiment on PC-3 prostate it was 1420 nM; in the experiment with EKVX NSCLC, 5.06 µM; in the experiment with ACHN renal, 3480 nM; with MOLT-4 leukemia it was 2750 nM; with SK-MEL-5 melanoma, 1.29 µM. Also, the GI50 was 2940 nM with RPMI-8226 leukemia, 2.49 µM with SK-OV-3 ovarian and 1140 nM in the experiment on RXF 393 renal. Also, the TGI in the experiment on 786-0 renal was 5.93 µM; in the experiment on PC-3 prostate, 10.4 µM; in the experiment with EKVX NSCLC it was > 100 µM; in the experiment with ACHN renal, 13.9 µM; in the experiment with MOLT-4 leukemia it was 9.76 µM; in the experiment on SK-MEL-5 melanoma it was 3.71 µM. In addition, the values for the TGI in the experiment with RPMI-8226 leukemia, with SK-OV-3 ovarian and with RXF 393 renal were 13.8 µM, 9.41 µM and 2.49 µM, respectively.

Turning to `O=C(N=Nc1c(O)[nH]c2c(Cl)cc(Cl)cc12)C(=O)Nc1cccc(C(F)(F)F)c1`, the TGI in the experiment with LOX IMVI melanoma, in the experiment with 786-0 renal, with PC-3 prostate, in the experiment with EKVX NSCLC, in the experiment on ACHN renal and in the experiment with MOLT-4 leukemia was > 100 µM each time. Besides, the TGI with SK-MEL-5 melanoma, in the experiment on SK-OV-3 ovarian and in the experiment on RXF 393 renal was > 100 µM in each case.

Turning to `CCN(CC)CCN1C(=O)c2cccc3cc(N)cc(c23)C1=O`, the TGI with 786-0 renal was > 100 µM; with PC-3 prostate, > 100 µM; in the experiment on EKVX NSCLC, 22.8 µM; in the experiment on ACHN renal it was > 100 µM; in the experiment on MOLT-4 leukemia it was > 100 µM; in the experiment on SK-MEL-5 melanoma, 26.6 µM. The TGI stood at 39.8 µM with RPMI-8226 leukemia, 69.3 µM with SK-OV-3 ovarian and 34.1 µM in the experiment with RXF 393 renal.

`COc1cc(F)c(F)c(F)c1C(=O)c1cnc(NC2CCN(S(C)(=O)=O)CC2)nc1N`: the GI50 in the experiment on LOX IMVI melanoma is 1.04 µM; in the experiment on 786-0 renal, 1640 nM; in the experiment on PC-3 prostate, 476 nM; with ACHN renal it was 906 nM; with MOLT-4 leukemia, 845 nM; with SK-MEL-5 melanoma, 0.986 µM. In addition, the values for the GI50 in the experiment with RPMI-8226 leukemia, in the experiment on SK-OV-3 ovarian and in the experiment with RXF 393 renal were 417 nM, 11.6 µM and 534 nM, respectively. The TGI is > 13 µM in the experiment on LOX IMVI melanoma; > 21.5 µM in the experiment on 786-0 renal; 9.3 µM in the experiment on PC-3 prostate; > 25 µM with ACHN renal; 11.4 µM in the experiment with MOLT-4 leukemia; > 23.6 µM in the experiment on SK-MEL-5 melanoma. Moreover, the TGI in the experiment with RPMI-8226 leukemia was 9.66 µM; with SK-OV-3 ovarian it was > 25 µM; in the experiment with RXF 393 renal, 1.98 µM.

For the molecule `CC(C)CC(=O)O[C@H]1C(=O)O[C@@H]2C[C@H]3[C@H](C)C(=O)C(O[C@@H]4O[C@H](CO)[C@@H](O)[C@H](O)[C@H]4O)=C[C@]3(C)[C@H]3[C@@H](O)[C@H](O)[C@]4(C(=O)O)OC[C@]32[C@@H]14`, the GI50 in the experiment on LOX IMVI melanoma was 38.7 µM; in the experiment on 786-0 renal it was > 100000 nM; in the experiment on EKVX NSCLC, > 100 µM; in the experiment with ACHN renal, > 100000 nM; in the experiment with MOLT-4 leukemia, 18900 nM; in the experiment on SK-MEL-5 melanoma, 28.4 µM. Also, the GI50 in the experiment on RXF 393 renal was 10800 nM. The TGI in the experiment with LOX IMVI melanoma, in the experiment on 786-0 renal, with PC-3 prostate, with EKVX NSCLC, with ACHN renal and with MOLT-4 leukemia was > 100 µM each time. Also, the TGI is > 100 µM in the experiment with SK-MEL-5 melanoma, > 100 µM with SK-OV-3 ovarian and 38.7 µM in the experiment with RXF 393 renal.

As to `C=C(CN1CCc2ccccc2C1)c1ccc(C(=O)Nc2cccc(N)c2)cc1`, the GI50 is 17200 nM with 786-0 renal; 21900 nM in the experiment with PC-3 prostate; 9.48 µM with EKVX NSCLC; 28800 nM with ACHN renal; 6000 nM in the experiment with MOLT-4 leukemia; 13.6 µM in the experiment on SK-MEL-5 melanoma. For the same molecule, the results for the GI50 in the experiment with RPMI-8226 leukemia, in the experiment with SK-OV-3 ovarian and with RXF 393 renal were 16300 nM, 29.5 µM and 19100 nM, respectively. For the same molecule, the TGI in the experiment with 786-0 renal is 46.6 µM; in the experiment on PC-3 prostate it was > 100 µM; with EKVX NSCLC it was 56.2 µM; with ACHN renal, 87.1 µM; with MOLT-4 leukemia it was 28.6 µM; with SK-MEL-5 melanoma, 28.3 µM. Also, the results for the TGI with RPMI-8226 leukemia, with SK-OV-3 ovarian and with RXF 393 renal were > 100 µM, 73.5 µM and 43.7 µM, respectively.

The values are drawn from PubChem BioAssay (NCI).
